row,Structure (SMILES),melting point
1,COc1cccc2c1CCC(COC(=O)N(c1ccccc1)c1ccccc1)C2 (stereo not given),144 to 146 °C
2,CCCc1ccc(CCc2ccc(-c3ccc(F)cc3)cc2)cc1,97 °C
3,Cc1[nH]c(=O)ccc1-c1ccc(-n2ccnc2)cc1,310 to 314 °C
4,COc1ccc(Nc2ccc(Nc3ncnc4cc(-c5ccccc5[N+](=O)[O-])sc34)cc2)cc1,228 to 237 °C
5,O=[N+]([O-])c1nccn1C1CCCCO1 (stereo not given),50 °C
6,Oc1noc2ncccc12,258 °C
7,COc1ccc2c3c([nH]c2c1[N+](=O)[O-])C(=O)CC3,228 °C
8,Cc1c(C(=O)N[C@H](C)[C@](O)(Cn2cncn2)c2ccc(F)cc2F)cnn1-c1ccc(C(F)(F)F)cc1,180 to 181 °C
9,CN1C(=O)C2(CCN(CC(O)C3COc4ccccc4O3)CC2)c2ccccc21 (stereo not given),113 to 128 °C
10,NC(=O)C1CCN(Cc2cnc3cc(NC(=O)c4ccc(-c5ccc(Cl)cc5)cc4)ccc3c2)CC1,260 °C
11,CN1CCC(n2ccc3ccccc32)CC1,58 °C
12,COc1cc(OC)cc(N2CCN(C(=O)[C@](C)(C#N)[C@H](c3ccccc3OC)c3cccc4ccccc34)CC2)c1,186 to 188 °C
13,C=C(C)C(=O)NCCNC(=O)CCl,126 to 128 °C
14,CC(=O)NC[C@H]1CN(c2ccc(N3CCC(C#N)(NNC(=O)c4cccs4)CC3)c(F)c2)C(=O)O1,226 to 230 °C
15,c1cc(CCC(Cn2ccnc2)Sc2ccc(N3CCCC3)cc2)ccn1 (stereo not given),148 to 149 °C
16,CCOCCc1nnc(S)n1N,123 to 124 °C
17,CC(C)(C)c1cc(CNn2ccnc2N2CCOCC2)cc(C(C)(C)C)c1O,161 to 163 °C
18,O=Cc1cc2ccsc2s1,43 to 45 °C
19,Cc1cc2cc(CN3CCCC3)cnc2cc1NC(=O)c1ccc(-c2ccc(Cl)s2)cc1,216 °C
20,CC(C)c1cc(C(C)C)cc(N(Cc2cccc(NC(=N)c3cccs3)c2)C(=O)CCc2cc(C(C)C)c(O)c(C(C)C)c2)c1,144 to 145 °C
21,O=C(Nc1ccc(OCCN2CCCC2=O)c2ccccc12)c1cc(F)cc(N2CCCCC2)c1,161 to 162 °C
22,O=C(NCCCCCCOC(=O)Oc1ccc([N+](=O)[O-])cc1)OC1CCN(C(=O)Oc2ccc(Oc3ccccc3)cc2)CC1,117 to 120 °C
23,CC(C)Oc1ccccc1NC(=O)Nc1ccc2cnccc2n1,78 to 80 °C
24,O=C(c1ccccc1)C(c1ccc(Cl)cc1)c1c(Cl)cc(-n2ncc(=O)[nH]c2=O)cc1Cl (stereo not given),143 °C
25,CC(=O)NC[C@H]1CN(c2ccc(N3CCS(=O)CC3)cc2)C(=O)O1,185 to 186 °C
26,C=CCNC1=NS(=O)(=O)c2cc(Cl)cnc2N1,224 to 227 °C
27,C[C@@H](Nc1ncnc2cc(OCC3CC3)c([N+](=O)[O-])cc12)c1ccccc1,155 °C
28,O=c1[nH]c(=O)c2ccc(C(c3ccccc3)n3ccnc3)cc2[nH]1 (stereo not given),287 °C
29,COC(=O)/C=C/c1ccc(CC(C)NCC(O)c2cccc(C(F)(F)F)c2)cc1 (stereo not given),80 to 83 °C

# Now from value to compound:
row,melting point,Structure (SMILES)
1,134 to 136 °C,CC(C)(C)OC(=O)Nc1ccc(C#Cc2ccc(F)cc2F)cc1[N+](=O)[O-]
2,142 °C,CCOC(=O)CCCn1c(C(=O)O)cc2cc(C)ccc21
3,178 to 180 °C,O=C(NC(=O)c1c(F)cccc1F)Nc1cc(Cl)c(OC(F)(F)C(F)Cl)c(Cl)c1 (stereo not given)
4,272 to 273 °C,NC(=O)c1[nH]c2ccc(Cl)cc2c1S(=O)(=O)c1cccc(Cl)c1
5,129 to 131 °C,Cc1ccccc1-c1ccc(C(=O)N2Cc3ccc(C(=O)NCCCCc4ccccc4)n3Cc3ccccc32)cc1C
6,112 °C,CC(C)(C)c1ccc(OCC(=O)NCc2ccc(NS(C)(=O)=O)c(O)c2)cc1
7,54 to 56 °C,CCOC(=O)C=C(c1ccc(Cl)cc1)c1ccc(Cl)cc1
8,138 to 139 °C,CCCCC(Oc1ccc(CCNS(=O)(=O)c2ccc(Cl)cc2)cc1)C(=O)O (stereo not given)
9,98 to 99 °C,Cc1oc(-c2ccc(Cl)cc2)nc1COc1cccc(/C=C/C(C)N(O)C(N)=O)c1 (stereo not given)
10,96 to 98 °C,COc1ccc(C[C@@H](C(=O)O)[C@@H](O)c2ccc(F)cc2)cc1 (racemic)
11,191 °C,Cc1c(-c2ccc3c(c2)N(C)C(=O)CS3)nc2ccccn12
12,89.5 to 92 °C,NCCOCC(O)c1cccc2ccccc12 (stereo not given)
13,113 to 114 °C,CC(C)(C)OC(=O)N[C@H]1CCN(OCc2ccccc2)C1=O
14,115 °C,CCCCCc1ccc(-c2ccc(-c3ccc(C)cc3)s2)cc1F
15,138 to 146 °C,O=C(O)CCc1cc2cc(OC(F)(F)F)ccc2n1S(=O)(=O)c1ccccc1
16,178 to 181 °C,CCOC(=O)CC1c2cccn2S(=O)(=O)c2ccccc2N1C(=O)c1ccccc1 (stereo not given)
17,197 to 198 °C,COc1ccc(C(O)CN2CC=C(C3=NNC(=O)CS3)CC2)cc1 (stereo not given)
18,173 to 174 °C,COCC(=O)Nc1cc(C#N)cc(NC(=O)COC)c1Cl
19,233 to 234 °C,NNC(=O)c1ccnc2[nH]c(CCc3ccccc3)cc12
20,140 to 142 °C,CCNc1ccc(S(=O)c2ccccc2)cc1N (stereo not given)
21,199 to 202 °C,O=C(Cc1ccc(NC(=O)c2cn3c4c(cccc24)CCC3)cc1)NO
